Measured values published in patent publication US4465851A, “Guanidinocyclohexanecarboxylic acid derivatives” (Nippon Chemiphar Co., Ltd., priority 1981, dated 1984).
Values joined by “and” are separate entries in the source; they are usually repeats but may differ in a detail not shown here. Equal entries are not always repeated. Structures can show the parent of a compound that is named as a salt.

Legend:
Plasmin [1] = settings: J. Med. Chem., Vol. 15, No. 3, 247 (1972); cited from earlier work
Thrombin = Thrombin (Homo sapiens, UniProt P00734); test: Inhibition of thrombin (TAMe hydrolysis); type: biochemical; settings: TAMe substrate; read-out: Concentration for 50% inhibition (IC50), thrombin
Mast cells = test: Effects on histamine release from mast cells induced by compound 48/80; type: cell-based; settings: Mast cell, read-out: Inhibition of histamine release
Method: After incubation for 20 minutes at 37° C., the suspension was cooled to 4° C., and released histamine was determined as described by Shore et al. All samples examined were recognized to cause no disturbance in the fluorometric assay.

[2] = Experimental asthma with actively sensitized guinea pigs; type: in vivo, Hartley male guinea pigs; settings: individual animals, hydrochloride
Method: The evaluation was also performed in the experimental asthma with actively sensitized guinea pigs as follows: Hartley male guinea pigs each weighing 300 to 350 g were sensitized (by subcutaneous injection into the inguinal region) with an egg albumin solution (1 mg/ml) emulsified with an equal volume of Freund's complete adjuvant (5 mg/kg of body weight). Ten days later, the emulsion was injected subcutaneously into the axilla. On the 26th day after the first sensitization, the animals were subjected to the experiments which were conducted in the same manner as in the passively sensitized animals.

[3] = system: ileum of each sensitized guinea pig; test: Schultz-Dale reaction; settings: Cavia porcellus, read-out: Inhibition of contraction (Schultz-Dale reaction)
Method: Male guinea pigs were sensitized with bovine serum albumin by Freund's complete adjuvant method. After a lapse of 10 days, the animals were sensitized once more as described above. After two more weeks, an ileum of each sensitized guinea pig was removed and used for experiment. The ileum was equipped in a magnus tube containing each test sample, and 500 μg of bovine serum albumin was added. The contraction of the ileum was determined.

[4] = Passive cutaneous anaphylaxis; type: in vivo; settings: rat, 125 mg/kg, p.o., 1 hour prior to antigen; dilution ratio of antigen × 32
Method: Diluted anti-egg albumin (rat anti-egg albumin serum) with saline (0.05 ml) was subcutaneously injected into the back of a rat. 48 hours later, egg albumin and Evans' blue dissolved in saline (egg albumin 10 mg and Evans' blue 5 mg/ml) were intravenously injected into the rat in an amount of 2.5 ml/kg. 45 minutes later, the rat was killed, bled and skined, and the permeated area (mm^2) of the dye was measured. Test samples were administered per os 1 hour prior to antigen injection.

Acute toxicity in rats = settings: rat, in vivo, po
Method: (§1) Normal ICR strain mice (female: 22 g, male: 24 g) or Wister strain rats (female: 90 g, male: 95 g) were used. A test compound was orally given using a gastric sonde. […] The LD50 values were calculated by the Litchfield-Wilcoxon method.

[5] = Experimental asthma with passively sensitized guinea pigs; type: in vivo, Hartley male guinea pigs; settings: 500 mg/kg oral, individual animals (10 animals)
Method: Hartley male guinea pigs each weighing 300 to 350 g were passively sensitized by intravenous injection with rabbit anti-egg albumin serum (0.5 ml/kg). 24 hours after passive sensitization, the guinea pigs were placed in a chamber for an inhalation test and then subjected to continuous spraying for 900 seconds with a mist of a 2% egg albumin solution. A test sample suspended in 5% gum arabic was orally administered 1 hour prior to the antigen challenge. The preconvulsion time was measured.

[6] = Active systemic anaphylaxis in mice; type: in vivo; settings: oral, survivors of 5 mice
Method: Egg albumin (10 mg) was mixed with 10 ml Bordetella pertusis vaccine (Takeda Chemical Industries, Ltd.), and the mixture was intraperitoneally injected into mice in an amount of 10 ml/kg. 22 days later, active systemic anaphylaxis was induced by intravenous injection of egg albumin dissolved in saline in an amount of 3 mg/10 ml/kg. A test sample suspended in 5% gum arabic was administered orally to the sensitized mice 1 hour prior to the antigen challenge. 24 hours after the antigen challenge, the number of survived mice was counted.

Plasma kallikrein = Plasma kallikrein (Homo sapiens, UniProt P03952); test: Inhibition of plasma kallikrein (TAMe hydrolysis); type: biochemical; settings: TAMe substrate; read-out: Concentration for 50% inhibition (IC50), plasma kallikrein
Method: (§2) Inhibitory effects on the TAMe(N^α -tosyl-L-arginine methyl ester) hydrolytic activity of trypsin, plasmin, plasma kallikrein and thrombin were estimated by Hesterin's method modified by Roberts. Inhibition of the BAEe(N^α -benzoyl-L-arginine ethyl ester) hydrolytic activity of pancreas kallikrein was determined by Hesterin's method after incubation at 37° C. for 30 minutes in a 0.1M borate buffer, pH 8.0. Inhibitory effects on urokinase were determined by the chromotropic acid method after incubation of 60 iu of urokinase with 10 mM AGLMe(acetylglycyl-L-lysine methyl ester) at 37° C. for 30 minutes in a 0.06M phosphate buffer, pH 7.5, containing 0.09M NaCl. Inhibition of chymotrypsin was determined by Hesterin's method after incubation with 15 mM ATE (N^α -acetyl-L-tyrosine ethyl ester) for 30 minutes at 37° C. in a 0.1M borate buffer, pH 8.0.

Chymotrypsin = Chymotrypsin (Bos taurus, UniProt P00766); test: Inhibition of chymotrypsin (ATE hydrolysis); type: biochemical; settings: 15 mM ATE, 30 minutes, 37° C., pH 8.0; read-out: Concentration for 50% inhibition (IC50), chymotrypsin
Method: as §2

Plasmin [7] = biological target: Plasmin (Homo sapiens, UniProt P00747); test: Inhibition of plasmin (TAMe hydrolysis); type: biochemical; settings: TAMe substrate; read-out: Concentration for 50% inhibition (IC50), plasmin
Method: as §2

guinea pigs ilea [8] = test: Anti-acetylcholine action; set-up: species or system guinea pig; settings: Cavia porcellus, read-out: Anti-acetylcholine effect inhibition of contraction
From the text: (§3) Anti-acetylcholine and anti-histamine effects of the present compounds were examined using guinea pigs ilea by the usual method.

Pancreas kallikrein = Pancreas kallikrein (Sus scrofa, UniProt P00752); test: Inhibition of pancreas kallikrein (BAEe hydrolysis); type: biochemical; settings: BAEe substrate, 37° C., 30 minutes, pH 8.0; read-out: Concentration for 50% inhibition (IC50), pancreas kallikrein
Method: as §2

Urokinase = Urokinase (Homo sapiens, UniProt P00749); test: Inhibition of urokinase (AGLMe, chromotropic acid method); type: biochemical; settings: 60 iu urokinase, 10 mM AGLMe, 37° C., 30 minutes, pH 7.5; read-out: Concentration for 50% inhibition (IC50), urokinase
Method: as §2

guinea pigs ilea [9] = test: Anti-histamine action; set-up: species or system guinea pig; settings: Cavia porcellus, read-out: Anti-histamine effect inhibition of contraction
From the text: as §3

Acute toxicity in mice = settings: mouse, in vivo, po
Method: as §1

Trypsin = biological target: T1, Trypsin (Bos taurus, UniProt P00760); test: Inhibition of trypsin (TAMe hydrolysis); type: biochemical; settings: TAMe substrate; read-out: Concentration for 50% inhibition (IC50), trypsin
T1 sequence (P00760 24-246): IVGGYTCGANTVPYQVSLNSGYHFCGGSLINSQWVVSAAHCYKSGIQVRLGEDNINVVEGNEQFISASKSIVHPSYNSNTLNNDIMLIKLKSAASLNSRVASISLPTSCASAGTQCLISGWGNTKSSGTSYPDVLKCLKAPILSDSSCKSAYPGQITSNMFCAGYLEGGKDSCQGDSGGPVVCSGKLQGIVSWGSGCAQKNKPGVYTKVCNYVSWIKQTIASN
Method: as §2

Pancreas kallikrein, sequence (P00752 15-246 limits assumed): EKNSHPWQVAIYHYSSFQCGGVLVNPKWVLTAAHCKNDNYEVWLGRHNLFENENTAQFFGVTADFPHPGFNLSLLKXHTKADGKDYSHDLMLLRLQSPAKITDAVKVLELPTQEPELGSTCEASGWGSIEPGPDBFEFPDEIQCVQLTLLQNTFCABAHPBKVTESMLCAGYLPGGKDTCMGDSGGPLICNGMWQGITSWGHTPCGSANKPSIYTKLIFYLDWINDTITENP
Plasmin (Homo sapiens, UniProt P00747), sequence (P00747 97-580 limits assumed, species assumed): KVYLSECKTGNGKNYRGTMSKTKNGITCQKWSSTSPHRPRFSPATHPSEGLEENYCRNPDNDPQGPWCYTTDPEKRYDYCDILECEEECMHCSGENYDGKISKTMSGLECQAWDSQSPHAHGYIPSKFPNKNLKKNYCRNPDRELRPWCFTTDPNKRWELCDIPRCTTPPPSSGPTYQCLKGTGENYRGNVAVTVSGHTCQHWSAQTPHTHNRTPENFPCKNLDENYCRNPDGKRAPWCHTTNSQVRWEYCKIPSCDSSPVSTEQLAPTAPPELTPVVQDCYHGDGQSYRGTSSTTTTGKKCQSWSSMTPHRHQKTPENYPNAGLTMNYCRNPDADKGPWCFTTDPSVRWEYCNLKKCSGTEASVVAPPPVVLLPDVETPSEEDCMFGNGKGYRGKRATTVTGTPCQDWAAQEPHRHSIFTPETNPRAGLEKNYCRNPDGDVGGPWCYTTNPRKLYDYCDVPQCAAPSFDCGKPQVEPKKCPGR
Plasma kallikrein, sequence (P03952 20-390 limits assumed, species assumed): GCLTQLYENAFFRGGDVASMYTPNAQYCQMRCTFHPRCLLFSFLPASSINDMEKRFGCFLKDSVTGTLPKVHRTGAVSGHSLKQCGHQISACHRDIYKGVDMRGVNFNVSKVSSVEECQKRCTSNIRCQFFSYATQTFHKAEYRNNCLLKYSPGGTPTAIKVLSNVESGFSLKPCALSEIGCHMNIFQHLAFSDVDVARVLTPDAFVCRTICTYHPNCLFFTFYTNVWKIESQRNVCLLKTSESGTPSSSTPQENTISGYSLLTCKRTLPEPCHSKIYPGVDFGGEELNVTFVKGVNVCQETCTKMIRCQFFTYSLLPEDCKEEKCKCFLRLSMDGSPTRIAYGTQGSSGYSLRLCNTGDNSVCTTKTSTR

In the case of `N=C(N)NCC1CCC(C(=O)O)CC1` (stereo not drawn) [4-guanidinomethylcyclohexanecarboxylic acid], the anti-plasmin effects (Plasmin [1]) is listed as “slight anti-plasmin effects”.

In the case of `CC(C)(C)c1ccc(OC(=O)[C@H]2CC[C@H](CNC(=N)N)CC2)cc1` [Compound 2, 4'-t-Butylphenyl trans-4-guanidinomethylcyclohexanecarboxylate hydrochloride], the IC50 (Thrombin) is reported as 250 µM, the inhibition at 10 µg/mL (Mast cells) is reported as 46.7% and the “Time to fall down” value ([2]; 125 mg/kg oral, 125 mg/kg) is reported as 699 sec. and > 900 sec. (4×). For the same molecule, the “Time to fall down” value ([2]; 250 mg/kg oral, 250 mg/kg) was 632 sec. and > 900 sec. (4×), the “Time to fall down” value ([2]; 500 mg/kg oral, 500 mg/kg) was 768 sec. and > 900 sec. (4×) and the inhibition at 25 µg/mL [3] was 64.3%. For the same molecule, the inhibition at 50 µg/mL [3] was 100%, the “Inhibition of passive cutaneous anaphylaxis” value [4] was 91.16% and the LD50 at 168 h (Acute toxicity in rats) was 10800 mg/kg. For the same molecule, the LD50 (Acute toxicity in rats; 10080 min, hydrochloride) was 11,000 mg/kg, the “Time to fall down” value [5] was over 900 s and the “Survival after 24 hr. (5 mice)” value ([6]; 100 mg/kg) was 2 mice. For the same molecule, the “Survival after 24 hr. (5 mice)” value ([6]; 250 mg/kg) was 2 mice, the “Survival after 24 hr. (5 mice)” value ([6]; 500 mg/kg) was 4 mice and the IC50 (Plasma kallikrein) was 150 µM. For the same molecule, the IC50 (Chymotrypsin) was 97 µM, the IC50 (Plasmin [7]) was 260 µM and the inhibition at 25 µg/mL (guinea pigs ilea [8]; final conc. 25 μg/ml) was 96%. It also gave an inhibition at 50 µg/mL (guinea pigs ilea [8]; final conc. 50 μg/ml) of 100%, an IC50 (Pancreas kallikrein) of 62 µM and an IC50 (Urokinase) of 36 µM. It also gave an inhibition at 25 µg/mL (guinea pigs ilea [9]) of 82%, an inhibition at 50 µg/mL (guinea pigs ilea [9]) of 96.5% and an LD50 at 168 h (Acute toxicity in mice) of 7300 mg/kg. For the same molecule, the LD50 (Acute toxicity in mice; 10080 min, hydrochloride) was 5400 mg/kg and the IC50 (Trypsin) was 170 µM.
